Test results from the supplement of paper PMC11061612.

Tests used:
Assay in all cases: combination Emax (second highest fraction inhibited in the dose matrix, 72 h); higher = more inhibition; extreme values may be limits of the assay
[1] = tested on: HuP-T3 (Pancreatic Carcinoma)
How it was run: (§1)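 Cell lines in DMEM/F12 or RPMI with 10% FBS were plated in 1536-well plates, held 24 hours at 37°C, 5% CO2, then given two-drug dose matrices for 72 hours (DMSO typically 0.2%). Viability was read by CellTiter-Glo 2.0 luminescence and scaled as inhibition from 0 (vehicle wells) to 1 (blank wells). Combination Emax is the second-highest inhibition in the matrix; Bliss excess is observed combination effect minus expected EA + EB − EA·EB, EA and EB being single-agent effects.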

BT-20 (Breast Carcinoma) = tested on: BT-20 (Breast Carcinoma)
How it was run: as §1

[2] = tested on: OCUB-M (Breast Carcinoma)
How it was run: as §1

U-87-MG (Glioblastoma) = tested on: U-87-MG (Glioblastoma)
How it was run: as §1

[3] = tested on: PF-382 (T-Lymphoblastic Leukemia)
How it was run: as §1

[4] = tested on: HSC-2 (Oral Cavity Carcinoma)
How it was run: as §1

GOTO (Neuroblastoma) = tested on: GOTO (Neuroblastoma)
How it was run: as §1

[5] = tested on: NCI-H322M (Lung Adenocarcinoma)
How it was run: as §1

RPMI-7951 (Melanoma) = tested on: RPMI-7951 (Melanoma)
How it was run: as §1

[6] = tested on: HC-1 (Other Blood Carcinomas)
How it was run: as §1

NB7 (Neuroblastoma) = tested on: NB7 (Neuroblastoma)
How it was run: as §1

[7] = tested on: VMRC-LCD (Lung Adenocarcinoma)
How it was run: as §1

[8] = tested on: KINGS-1 (Low Grade Glioma)
How it was run: as §1

[9] = tested on: LOU-NH91 (Squamous Cell Lung Carcinoma)
How it was run: as §1

A704 (Kidney Carcinoma) = tested on: A704 (Kidney Carcinoma)
How it was run: as §1

NH-12 (Neuroblastoma) = tested on: NH-12 (Neuroblastoma)
How it was run: as §1

[10] = tested on: TGBC11TKB (Gastric Carcinoma)
How it was run: as §1

[11] = tested on: KU-19-19 (Bladder Carcinoma)
How it was run: as §1

[12] = tested on: EBC-1 (Squamous Cell Lung Carcinoma)
How it was run: as §1

[13] = tested on: KLE (Endometrial Carcinoma)
How it was run: as §1

Structure (SMILES) | combination Emax [1] | combination Emax (BT-20 (Breast Carcinoma)) | combination Emax [2] | combination Emax (U-87-MG (Glioblastoma)) | combination Emax [3] | combination Emax [4] | combination Emax (GOTO (Neuroblastoma)) | combination Emax [5] | combination Emax (RPMI-7951 (Melanoma)) | combination Emax [6] | combination Emax (NB7 (Neuroblastoma)) | combination Emax [7] | combination Emax [8] | combination Emax [9] | combination Emax (A704 (Kidney Carcinoma)) | combination Emax (NH-12 (Neuroblastoma)) | combination Emax [10] | combination Emax [11] | combination Emax [12] | combination Emax [13]
CC1(C)CCC(CN2CCN(c3ccc(C(=O)NS(=O)(=O)c4ccc(NCC5CCOCC5)c([N+](=O)[O-])c4)c(Oc4cnc5[nH]ccc5c4)c3)CC2)=C(c2ccc(Cl)cc2)C1 [Venetoclax] + Cc1cc2ncnn2cc1Nc1ncc2c(n1)n(C1CCOCC1)c(=O)n2C [AZD7648] (first compound max 1 µM, 7x7, partner max 10 µM) | 0.166 | 0.374 | 0.383 | 0.354 | 0.355 | 0.304 | 0.434 | 0.414 | 0.334 | 0.481 | 0.0987 | 0.179 | 0.329 | 0.264 | 0.32 | 0.538 | 0.133 | 0.225 | 0.26 | 0.444
C[C@@H](c1ccc2nccn2c1)n1nnc2ncc(-c3cnn(C)c3)nc21 [Savolitinib] + Cc1c2c(nn1C)CSCc1cc(n(C)n1)CSc1cc(c3ccccc3c1)OCCCc1c(C(=O)O)n(C)c3c-2c(Cl)ccc13 [AZD5991] (first compound max 1 µM, 7x7, partner max 1 µM) | 0.189 | 0.465 | 0.899 | 0.288 | 0.134 | 0.711 | 0.804 | 0.086 | 0.266 | 0.216 | 0.462 | 0.154 | 0.323 | 0.199 | 0.256 | 0.202 | 0.507 | 0.204 | 1 | 0.162
Cc1c2c(nn1C)CSCc1cc(n(C)n1)CSc1cc(c3ccccc3c1)OCCCc1c(C(=O)O)n(C)c3c-2c(Cl)ccc13 [AZD5991] + C1CN(CCC1(C(=O)N[C@@H](CCO)C2=CC=C(C=C2)Cl)N)C3=NC=NC4=C3C=CN4 [Capivasertib] (first compound max 1 µM, 7x7, partner max 3 µM) | 0.228 | 0.867 | 1 | 0.372 | 0.477 | 0.976 | 0.725 | 0.225 | 0.986 | 0.588 | 0.609 | 0.129 | 0.242 | 0.427 | 0.306 | 0.32 | 0.472 | 0.174 | 0.287 | 0.267
NC1(C(=O)N[C@@H](CCO)c2ccc(Cl)cc2)CCN(c2ncnc3[nH]ccc23)CC1 [Capivasertib] + CC(=O)c1c(C)c2cnc(Nc3ccc(N4CCNCC4)cn3)nc2n(C2CCCC2)c1=O [Palbociclib] (first compound max 10 µM, 7x7, partner max 10 µM) | 0.324 | 0.81 | 0.994 | 0.585 | 0.743 | 0.582 | 0.81 | 0.639 | 0.854 | 0.632 | 0.689 | 0.127 | 0.414 | 0.5 | 0.665 | 0.519 | 0.166 | 0.536 | 0.612 | 0.377
Cn1cnc2c(F)c(Nc3ccc(Br)cc3Cl)c(C(=O)NOCCO)cc21 [Selumetinib] + CC(C)n1c(=O)n(C)c2cnc3cc(F)c(-c4ccc(OCCCN5CCCCC5)nc4)cc3c21 [AZD1390] (first compound max 10 µM, 7x7, partner max 0.3 µM) | 0.368 | 0.252 | 0.0283 | 0.215 | 0.211 | 0.248 | 0.283 | 0.527 | 0.307 | 0.456 | 0.0793 | 0.15 | 0.232 | 0.219 | 0.246 | 0.482 | 0.507 | 0.917 | 0.934 | 0.178
CN(CCO)CC[C@H](CSc1ccccc1)Nc1ccc(S(=O)(=O)NC(=O)c2ccc(N3CCC([C@@H](O)c4ccccc4-c4ccc(Cl)cc4)CC3)cc2)cc1S(=O)(=O)C(F)(F)F [AZD4320] + C[C@@H](Nc1cc(F)cc(F)c1)c1cc(C(=O)N(C)C)cc2c(=O)cc(N3CCOCC3)oc12 [AZD8186] (first compound max 1 µM, 7x7, partner max 3 µM) | 0.332 | 0.614 | 0.835 | 0.527 | 1 | 0.897 | 0.831 | 0.506 | 0.701 | 0.965 | 0.49 | 0.249 | 0.629 | 0.768 | 0.57 | 0.998 | 0.338 | 0.315 | 0.972 | 0.61
CC(=O)c1c(C)c2cnc(Nc3ccc(N4CCNCC4)cn3)nc2n(C2CCCC2)c1=O [Palbociclib] + Cc1c2c(nn1C)CSCc1cc(n(C)n1)CSc1cc(c3ccccc3c1)OCCCc1c(C(=O)O)n(C)c3c-2c(Cl)ccc13 [AZD5991] (first compound max 10 µM, 7x7, partner max 1 µM) | 0.266 | 0.916 | 0.882 | 0.29 | 0.633 | 0.696 | 0.802 | 0.501 | 0.732 | 0.654 | 0.576 | 0.337 | 0.258 | 0.35 | 0.595 | 0.478 | 0.355 | 0.435 | 0.36 | 0.181
Cn1cnc2c(F)c(Nc3ccc(Br)cc3Cl)c(C(=O)NOCCO)cc21 [Selumetinib] + C=CCn1c(=O)c2cnc(Nc3ccc(N4CCN(C)CC4)cc3)nc2n1-c1cccc(C(C)(C)O)n1 [AZD1775] (first compound max 10 µM, partner max 1 µM) | 0.629 | 0.695 | 0.0588 | 0.252 | 0.974 | 0.372 | 0.928 | 0.861 | 0.741 | 0.941 | 0.619 | 0.702 | 0.361 | 0.423 | 0.488 | 0.891 | 0.912 | 0.917 | 0.923 | 0.539
COc1nnc2ccc(N3CCC(c4ccc(OCCN5CCN(C)C(=O)[C@H]5C)cc4)CC3)nn12 [AZD5153] + Cc1c2c(nn1C)CSCc1cc(n(C)n1)CSc1cc(c3ccccc3c1)OCCCc1c(C(=O)O)n(C)c3c-2c(Cl)ccc13 [AZD5991] (first compound max 1 µM, 7x7, partner max 1 µM) | 0.534 | 0.787 | 1 | 0.559 | 0.986 | 0.963 | 0.919 | 0.539 | 0.825 | 0.753 | 0.875 | 0.925 | 0.186 | 0.705 | 0.545 | 0.672 | 0.789 | 0.775 | 0.862 | 0.668
CN(CCO)CC[C@H](CSc1ccccc1)Nc1ccc(S(=O)(=O)NC(=O)c2ccc(N3CCC([C@@H](O)c4ccccc4-c4ccc(Cl)cc4)CC3)cc2)cc1S(=O)(=O)C(F)(F)F [AZD4320] + Cn1cnc2c(F)c(Nc3ccc(Br)cc3Cl)c(C(=O)NOCCO)cc21 [Selumetinib] (first compound max 1 µM, 7x7, partner max 3 µM) | 0.471 | 0.746 | 0.797 | 0.278 | 1 | 0.768 | 0.85 | 0.642 | 0.526 | 0.972 | 0.507 | 0.226 | 0.481 | 0.662 | 0.642 | 0.998 | 0.469 | 0.937 | 0.991 | 0.423
C=CCn1c(=O)c2cnc(Nc3ccc(N4CCN(C)CC4)cc3)nc2n1-c1cccc(C(C)(C)O)n1 [AZD1775] + C1CN(CCC1(C(=O)N[C@@H](CCO)C2=CC=C(C=C2)Cl)N)C3=NC=NC4=C3C=CN4 [Capivasertib] (first compound max 3 µM, partner max 3 µM) | 0.655 | 0.69 | 0.955 | 0.467 | 0.952 | 0.757 | 0.712 | 0.768 | 0.856 | 0.982 | 0.748 |  | 0.473 | 0.727 | 0.438 | 0.852 | 0.939 | 0.856 | 0.7 | 0.619
CC(=O)c1c(C)c2cnc(Nc3ccc(N4CCNCC4)cn3)nc2n(C2CCCC2)c1=O [Palbociclib] + CN(CC[C@H](CSC1=CC=CC=C1)NC2=C(C=C(C=C2)S(=O)(=O)NC(=O)C3=CC=C(C=C3)N4CCC(CC4)[C@H](C5=CC=CC=C5C6=CC=C(C=C6)Cl)O)S(=O)(=O)C(F)(F)F)CCO [AZD4320] (first compound max 10 µM, 7x7, partner max 1 µM) | 0.274 | 0.546 |  | 0.312 | 1 |  | 0.846 | 0.517 | 0.678 | 0.831 |  |  |  | 0.618 | 0.935 | 0.988 |  | 0.54 | 0.875 | 0.355
